What is called IC50 is the concentration needed to halve the response being measured.

This is an account of results in patent US9593084B2 (Parion Sciences, Inc., priority 2012, dated 2017).

Molecules are shown by their SMILES. Read-outs that look alike come from different tables or passages of the source. Marks after values point to notes of the source that are not given here.

Experiment [1] has as its target T1, epithelial sodium channel (Canis lupus familiaris, UniProt A0A8I3MKE6+A0A8I3Q679+Q95165).
T1 construct: endogenous in cells; host or cells: primary canine bronchial epithelial cells cultured at air-liquid interface
T1 sequence (A0A8I3Q679 1-649): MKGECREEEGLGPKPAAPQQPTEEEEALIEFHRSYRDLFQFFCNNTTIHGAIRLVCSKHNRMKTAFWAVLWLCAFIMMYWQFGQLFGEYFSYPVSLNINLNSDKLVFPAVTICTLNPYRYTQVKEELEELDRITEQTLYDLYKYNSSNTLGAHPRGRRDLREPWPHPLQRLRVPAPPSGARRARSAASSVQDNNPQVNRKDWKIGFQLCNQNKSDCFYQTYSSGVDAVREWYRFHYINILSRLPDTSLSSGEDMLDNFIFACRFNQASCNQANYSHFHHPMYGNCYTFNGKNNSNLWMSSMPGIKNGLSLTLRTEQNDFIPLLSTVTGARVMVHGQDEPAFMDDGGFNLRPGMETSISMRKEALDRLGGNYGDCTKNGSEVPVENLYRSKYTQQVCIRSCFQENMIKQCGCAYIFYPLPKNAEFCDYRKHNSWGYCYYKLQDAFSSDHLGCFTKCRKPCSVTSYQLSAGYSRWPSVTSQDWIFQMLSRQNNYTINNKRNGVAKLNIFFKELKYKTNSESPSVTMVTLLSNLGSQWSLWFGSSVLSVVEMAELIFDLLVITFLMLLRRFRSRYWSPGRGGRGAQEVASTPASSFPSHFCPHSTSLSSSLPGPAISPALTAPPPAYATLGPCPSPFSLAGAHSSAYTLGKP
T1 sequence (Q95165 1-641): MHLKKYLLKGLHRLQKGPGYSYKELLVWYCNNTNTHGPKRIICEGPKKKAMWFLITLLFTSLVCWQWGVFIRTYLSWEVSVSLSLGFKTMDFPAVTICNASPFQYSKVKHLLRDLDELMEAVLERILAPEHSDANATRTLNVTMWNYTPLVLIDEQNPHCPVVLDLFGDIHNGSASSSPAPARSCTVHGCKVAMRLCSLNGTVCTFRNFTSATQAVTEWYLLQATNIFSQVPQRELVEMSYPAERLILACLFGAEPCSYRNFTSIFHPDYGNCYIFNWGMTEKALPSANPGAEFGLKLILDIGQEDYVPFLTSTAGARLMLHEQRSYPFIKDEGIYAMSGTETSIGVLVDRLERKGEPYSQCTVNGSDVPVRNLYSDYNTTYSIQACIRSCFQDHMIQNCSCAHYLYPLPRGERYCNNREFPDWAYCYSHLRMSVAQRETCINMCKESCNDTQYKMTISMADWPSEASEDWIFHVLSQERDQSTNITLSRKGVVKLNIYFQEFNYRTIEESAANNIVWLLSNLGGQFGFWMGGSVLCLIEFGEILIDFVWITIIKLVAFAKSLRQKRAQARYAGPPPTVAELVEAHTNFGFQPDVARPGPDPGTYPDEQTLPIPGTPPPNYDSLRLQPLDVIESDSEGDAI
T1 sequence (A0A8I3MKE6 1-646): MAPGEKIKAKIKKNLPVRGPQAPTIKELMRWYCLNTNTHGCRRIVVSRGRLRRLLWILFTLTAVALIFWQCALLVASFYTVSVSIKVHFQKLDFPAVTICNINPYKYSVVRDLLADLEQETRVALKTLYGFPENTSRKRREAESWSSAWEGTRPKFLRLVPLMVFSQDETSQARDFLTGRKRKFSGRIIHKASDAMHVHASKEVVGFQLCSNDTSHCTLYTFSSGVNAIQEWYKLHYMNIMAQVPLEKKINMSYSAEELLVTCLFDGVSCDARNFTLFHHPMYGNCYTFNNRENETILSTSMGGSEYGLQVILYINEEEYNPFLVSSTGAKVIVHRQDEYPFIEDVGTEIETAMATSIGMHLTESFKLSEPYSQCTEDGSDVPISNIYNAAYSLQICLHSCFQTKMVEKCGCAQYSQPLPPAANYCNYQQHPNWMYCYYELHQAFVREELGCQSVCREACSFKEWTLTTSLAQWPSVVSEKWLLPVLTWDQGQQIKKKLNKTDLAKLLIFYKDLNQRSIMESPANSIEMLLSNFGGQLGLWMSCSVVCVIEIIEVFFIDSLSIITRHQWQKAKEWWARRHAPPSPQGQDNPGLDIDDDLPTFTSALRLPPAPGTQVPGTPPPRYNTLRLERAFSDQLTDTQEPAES
Put plainly: Inhibition of short-circuit current (ISC) in airway epithelial monolayers in Ussing chambers. In kind it is cell-based, canine. The protocol:
One assay used to assess mechanism of action and/or potency of the compounds of the present invention involves the determination of lumenal drug inhibition of airway epithelial sodium currents measured under short circuit current (ISC) using airway epithelial monolayers mounted in Using chambers. Cells obtained from freshly excised human, dog, sheep or rodent airways are seeded onto porous 0.4 micron Snapwelff Inserts (CoStar), cultured at air-liquid interface (ALI) conditions in hormonally defined media, and assayed for sodium transport activity (ISC) while bathed in Krebs Bicarbonate Ringer (KBR) in Using chambers. All test drug additions are to the lumenal bath with half-log dose addition protocols (from 1×10^−11 M to 3×10^−5 M), and the cumulative change in ISC (inhibition) recorded. All drugs are prepared in dimethyl sulfoxide as stock solutions at a concentration of 1×10^−2 M and stored at −20° C. […] After the maximal concentration ([…]) is administered, the lumenal bath is exchanged three times with fresh drug-free KBR solution, and the resultant ISC measured after each wash for approximately 5 minutes in duration. Reversibility is defined as the percent return to the baseline value for sodium current after the third wash. All data from the voltage clamps are collected via a computer interface and analyzed off-line.
Dose-effect relationships for all compounds are considered and analyzed by the Prism 3.0 program.

The next experiment has as its system Sheep MCC. Description: Mucociliary clearance (MCC) studies in sheep. The conditions noted are these: sheep, 0.24 nmol/kg (3 μM); for effect on MCC compared to vehicle: 4 h post-dose; for AUC (% Cl-h) / Initial Slope (4.0-4.5 h): aerosol, MCC at 4 h post-dose. The class given is in vivo. The protocol:
The animal model that has been used most often to measure changes in MCC is the sheep model. The effect of compounds for enhancing mucociliary clearance (MCC) can be measured using an in vivo model described by Sabater et al., Journal of Applied Physiology, 1999, pp. 2191-2196, incorporated herein by reference.
In these studies, adult sheep were restrained and nasally intubated with an endotracheal tube. Aerosolized test articles were administered over 10-15 minutes to sheep. Radiolabeled ^99mTc-sulfur colloid (TSC, 3.1 mg/mL; containing approximately 20 mCi) was then administered at a specified time four or eight hours after test article. The radiolabeled aerosol was administered through the endotracheal tube for about 5 minutes. The sheep were then extubated, and total radioactive counts in the lung were measured every 5 minutes for a 1-hour observation period. The rate of radiolabel clearance from the lung is representative of the MCC rate in the animal. The advantage of this system is that it closely simulates the human lung environment. The model also allows for the collection of simultaneous PK/PD information through plasma and urine sampling over the test period. There are also several techniques to measure the drug concentrations on the airway surface during the MCC measurements. These include the collection of exhaled breath condensates or a filter paper method to obtain ASL via bronchoscopy.
The ovine model described above was used to evaluate the in vivo effects (efficacy/durability) of aerosol-delivered test agent on MCC. Treatments consisting of either 4 mL of test agent or test agent in combination with HS were tested. To determine if combining HS with test agent enhanced MCC, HS was administered immediately following test agent administration. Test solutions were aerosolized using a Raindrop nebulizer at a flowrate of eight liters per minute and connected to a dosimetry system consisting of a solenoid valve and a source of compressed air (20 psi). The deposited dose of drug in sheep lungs after an aerosol administration using the Raindrop nebulizer is estimated to be 8-15% of the dose. Using a Raindrop nebulizer, radiolabeled TSC was administered over approximately 3 minutes either 4 or 8 hours after drug treatment to evaluate efficacy/durability. Radioactive counts were measured in a central region in the right lung at 5 min intervals for one hour with a gamma camera. Three methods of analysis were utilized, 1) initial rate of clearance (slope) over the first 30 min fitted using linear regression 2) area under the curve for % clearance over time over one hour, and 3) the maximum clearance obtained in one hour.

Where [2] appears, read: canine bronchial epithelial cells, short-circuit current, read-out: Potency of Sodium Channel Blockade IC50.

For `N=C(NCCCCc1ccc(C[C@H](N)C(=O)Nc2ccc(CCCCCCN(C[C@H](O)[C@@H](O)[C@H](O)[C@H](O)CO)C[C@H](O)[C@@H](O)[C@H](O)[C@H](O)CO)cc2)c2ccccc12)NC(=O)c1nc(Cl)c(N)nc1N` [Compound 48, 3,5-diamino-N—(N-(4-(4-((S)-2-amino-3-(4-(6-(bis((2S,3R,4R,5R)-2,3,4,5,6-pentahydroxyhexyl)amino)hexyl)phenylamino)-3-oxopropyl)naphthalen-1-yl)butyl)carbamimidoyl)-6-chloropyrazine-2-carboxamide], the IC50 in experiment [1] (setting [2]) stood at 47 nM. In the experiment with Sheep MCC, the “effect on MCC compared to vehicle” value was “Similarly Enhance MCC Compared to Vehicle”, the “AUC (% Cl-h)” value was 15.4* (2) % Cl-h and the “Initial Slope (4.0-4.5 h)” value was 29.8* (2).
Regarding `N=C(NCCCCc1ccc2cc(C[C@H](N)C(=O)Nc3ccc(CCCN(C[C@H](O)[C@@H](O)[C@H](O)[C@H](O)CO)C[C@H](O)[C@@H](O)[C@H](O)[C@H](O)CO)cc3)ccc2c1)NC(=O)c1nc(Cl)c(N)nc1N` [Compound 94, 3,5-diamino-N—(N-(4-(6-((S)-2-amino-3-(4-(3-(bis((2S,3R,4R,5R)-2,3,4,5,6-pentahydroxyhexyl)amino)propyl)phenylamino)-3-oxopropyl)naphthalen-2-yl)butyl)carbamimidoyl)-6-chloropyrazine-2-carboxamide], in experiment [1] (setting [2]), the IC50 came to 21.2 nM.
On the same count and under the same terms, as for `N=C(NCCCCc1ccc2cc(C[C@H](N)C(=O)Nc3ccc(CCCNC[C@H](O)[C@@H](O)[C@H](O)[C@H](O)CO)cc3)ccc2c1)NC(=O)c1nc(Cl)c(N)nc1N` [Compound 99, 3,5-diamino-N—(N-(4-(6-((S)-2-amino-3-oxo-3-(4-(3-((2S,3R,4R,5R)-2,3,4,5,6-pentahydroxyhexylamino)propyl)phenylamino)propyl)naphthalen-2-yl)butyl)carbamimidoyl)-6-chloropyrazine-2-carboxamide], the figure is 7.6 nM; as for `CN(C)CCCc1ccc(NC(=O)[C@@H](N)Cc2ccc3cc(CCCCNC(=N)NC(=O)c4nc(Cl)c(N)nc4N)ccc3c2)cc1` [Compound 103, (S)-3,5-diamino-N—(N-(4-(6-(2-amino-3-(4-(3-(dimethylamino)propyl)phenylamino)-3-oxopropyl)naphthalen-2-yl)butyl)carbamimidoyl)-6-chloropyrazine-2-carboxamide], 17.9 nM.
Take `CCCCCCN(CCCc1ccc(NC(=O)[C@@H](N)Cc2ccc(CCCCNC(=N)NC(=O)c3nc(Cl)c(N)nc3N)c3c2CCCC3)cc1)C[C@H](O)[C@@H](O)[C@H](O)[C@H](O)CO` [Compound 123, 3,5-diamino-N—(N-(4-(4-((S)-2-amino-3-(4-(3-(hexyl((2S,3R,4R,5R)-2,3,4,5,6-pentahydroxyhexyl)amino)propyl)phenylamino)-3-oxopropyl)-5,6,7,8-tetrahydronaphthalen-1-yl)butyl)carbamimidoyl)-6-chloropyrazine-2-carboxamide]: in experiment [1] (setting [2]), the concentration for half-maximal inhibition (IC50) was found to be 2.3 nM. Further, in the experiment on Sheep MCC, the “effect on MCC compared to vehicle” value is listed as “Similarly Enhance MCC Compared to Vehicle”, the “AUC (% Cl-h)” value was 14.4* (2) % Cl-h and the “Initial Slope (4.0-4.5 h)” value is listed as 29.2* (2).
On to `N=C(NCCCCc1ccc(C[C@H](N)C(=O)Nc2ccc(CCCN(C[C@H](O)[C@@H](O)[C@H](O)[C@H](O)CO)C[C@H](O)[C@@H](O)[C@H](O)[C@H](O)CO)cc2)c2c1CCCC2)NC(=O)c1nc(Cl)c(N)nc1N` [Compound 127, 3,5-diamino-N—(N-(4-(4-((S)-2-amino-3-(4-(3-(bis((2S,3R,4R,5R)-2,3,4,5,6-pentahydroxyhexyl)amino)propyl)phenylamino)-3-oxopropyl)-5,6,7,8-tetrahydronaphthalen-1-yl)butyl)carbamimidoyl)-6-chloropyrazine-2-carboxamide], for which, in experiment [1] (setting [2]), the IC50 is 8.6 nM.
In experiment [1], `NC(=NC(=O)c1nc(Cl)c(N)nc1N)NCCCCc1ccc(C[C@H](N)C(=O)Nc2ccc(CCCNC[C@H](O)[C@@H](O)[C@H](O)[C@H](O)CO)cc2)c2c1CCCC2` [Compound 131] displayed an IC50 of 6 nM.
`CN(C)CCCc1ccc(NC(=O)[C@@H](N)Cc2ccc(CCCCNC(=N)NC(=O)c3nc(Cl)c(N)nc3N)c3c2CCCC3)cc1` [Compound 135, (S)-3,5-diamino-N—(N-(4-(4-(2-amino-3-(4-(3-(dimethylamino)propyl)phenylamino)-3-oxopropyl)-5,6,7,8-tetrahydronaphthalen-1-yl)butyl)carbamimidoyl)-6-chloropyrazine-2-carboxamide]: the IC50 in experiment [1] (setting [2]) is 5.2 nM.
For the molecule `N=C(NCCCCc1ccc(C[C@H](N)C(=O)O)c2c1CCCC2)NC(=O)c1nc(Cl)c(N)nc1N` [Compound 139, (S)-2-amino-3-(4-(4-(3-(3,5-diamino-6-chloropyrazine-2-carbonyl)guanidino)butyl)-5,6,7,8-tetrahydronaphthalen-1-yl)propanoic acid], the half-inhibitory concentration (IC50) in experiment [1] (setting [2]) is 73.7 nM.
